Results taken from patent US20240284907A1, “NOVEL DERIVATIVES OF NON-CODED AMINO ACIDS AND THEIR USE AS HERBICIDES” (FortePhest LTD., priority 2021, published 2024).

What was measured:
Assay type in all cases: in vivo
[1] = tested on: Seeds of Lettuce R. (Super-Jericho); assay: Filter paper bioassay with lettuce seeds: germination and early plant development, Minimal Effective Concentration (MEC); settings: lettuce seeds on filter paper, 0 to 1 mmol/l, visually assessed after 6 days
Outline: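 Non-sterilized Super-Jericho lettuce seeds, 10 per dish, on filter paper wetted with aqueous test solution at 0–1 mmol/l. Kept 48 h dark, then 4 days at 6/18 dark/light. MEC is the lowest concentration causing no germination or radicle/shoot malformation by visual scoring at day 6; at least two repeats.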

[2] = tested on: Romaine lettuce (Lactuca sativa L.) plants; assay: Post-emergence herbicidal activity on potted Romaine lettuce plants (soil or foliar application); settings: lettuce at 2 to 3 leaves, two weeks after treatment
Outline: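 Potted lettuce at the 2-3 leaf stage received compound in 0.1% aqueous Silwet, up to 0.0001%, applied to soil (1 ml/pot) or sprayed on foliage (0.1 ml/pot), 20 plants per concentration. Visual scoring and aboveground wet weight after two weeks; growth inhibition from median weights versus control.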

Amaranth = assay: Herbicidal effect on potted weeds, plant development score; settings: soil application 1 mg/pot, scale 0 (dead plants) to 5 (healthy, as Control)
Experimental: (§1) Weed seeds were sawn in 0.3-liter pots, containing medium-heavy clay-loam soil from organic fields (55% clay, 23% silt, 20% sand, 2% organic matter, pH 7.1). The experiment was conducted in a completely randomized design. Each treatment was replicated 3 times (3 pots). Each compound was typically tested on crops (Corn, Wheat, Soy, Cotton, Oat, Chickpea) and weeds (Amaranth, Chenopodium, Lentils, Sinapis, Silybum).
(§2) The herbicides were applied at dose from 0 (control) to 5 mg/pot. The treatment was performed at the day of sawn (pre-emergence treatment). Then the pots were transferred to a mesh house 24 hours after herbicide application and were sprinkler irrigated to field capacity of the soil. Alternatively, the herbicides were applied on grown plants at stage 2-3 true leaves (post-emergence treatment).
(§3) The plants were grown in the mesh house during the entire experiment. Plant development at 6, 12, 19, 26 and 32 days after application (DAA) were evaluated on a scale of 0 to 5, in which 0 represents dead plants and 5 represents healthy plants similar or not different from Control. In the context of the invention, the herbicidal effect was expressed as a score calculated as an average of assessments of plants vigor, height, and leaf color.

Chenopodium = assay: as above; settings: soil application 1 mg/pot, scale 0 (dead plants) to 5 (healthy, as Control)
Experimental: as §1, §2, §3

Lentils = assay: as above; settings: soil application 1 mg/pot, scale 0 (dead plants) to 5 (healthy, as Control)
Experimental: as §1, §2, §3

Silybum = assay: as above; settings: soil application 1 mg/pot, scale 0 (dead plants) to 5 (healthy, as Control)
Experimental: as §1, §2, §3

Sinapis = assay: as above; settings: soil application 1 mg/pot, scale 0 (dead plants) to 5 (healthy, as Control)
Experimental: as §1, §2, §3

[3] = tested on: Seeds of Lettuce R. (Super-Jericho); assay: Filter paper bioassay with lettuce seeds: germination, Fully Effective Concentration (FEC); settings: lowest concentration mostly preventing lettuce seed germination, assessed after 6 days
Source text: Materials: Seeds of Lettuce R. (Super-Jericho, non-sterilized) were obtained from Ben Shahar Moshe Ltd., 99% purity. The test compounds listed in the Table 2 below were synthetized de novo or purchased from different vendors.
Filter Paper Bioassays with Lettuce seeds: The protocol is following Bertin et al. 2009 and Movellan et al. 2014 with specified modifications as described below.
Seeds were placed on Whatman no. 1 filter paper (Whatman, Middlesex, U.K.) in Petri dishes (10 seeds per plate) with 2.0 ml of aqueous solution of a test material in concentration ranged from 0 (control) to 1 mmol/l were placed in a tray tilted at 45°. The trays were kept in dark for 48 hours and then transferred to the growth chamber with 6/18 dark/light cycle for 4 days. Each experiment was performed at least with two repeats.
The development of plants' radicle and shoots were visually assessed 6 days after the beginning of the test to determine Fully Effective Concentration (FEC) of a test material. In the context of the invention, FED is defined as the lowest concentration level of a test material that mostly preventing seeds germination.

| Compound | Score (activity score of Minimal Effective Concentration, MEC) [1] | Score (test material causing more than 85% of Growth Inhibition or irreversible plant damage) ([2]; soil application) | Average Herbicidal Effect, Amaranth (Amaranth; post-emergence) | Average Herbicidal Effect, Amaranth (Amaranth; pre-emergence) | Average Herbicidal Effect, Chenopodium (Chenopodium; post-emergence) | Average Herbicidal Effect, Chenopodium (Chenopodium; pre-emergence) | Average Herbicidal Effect, Lentils (Lentils; pre-emergence) | Average Herbicidal Effect, Silybum (Silybum; post-emergence) | Average Herbicidal Effect, Silybum (Silybum; pre-emergence) | Average Herbicidal Effect, Sinapis (Sinapis; post-emergence) | Score (test material causing more than 85% of Growth Inhibition or irreversible plant damage) ([2]; foliar application) | Average Herbicidal Effect, Lentils (Lentils; post-emergence) | Average Herbicidal Effect, Sinapis (Sinapis; pre-emergence) | FEC (Fully Effective Concentration) [3] [mM] |
| --- | --- | --- | --- | --- | --- | --- | --- | --- | --- | --- | --- | --- | --- | --- |
| 2,2-difluoro-2-[6-(trifluoromethyl)pyridin-2-yl]acetic acid [compound 6651] | Strong (0.01 mM) | moderate (0.5) | 0.5 | 5.0 | 0.5 | 1.5 | 0.0 | 2.0 | 4.0 | 2.0 | – | – | – | – |
| 2-(2,5-dichloro-1,3-thiazol-4-yl)acetic acid [compound 5637] | Strong (0.01 mM) | strong (0.01 to 0.05) | 3.3 | 1.5 | 2.2 | 1.5 | 0.0 | 1.0 | 0.5 | 0.0 | moderate (0.5) | 1.7 | 3.5 | 0.050 |
| O=C(O)Cc1cc(Cl)sc1Cl [compound 586, 2-(2,5-dichlorothiophen-3-yl) acetic acid] | strong | moderate (0.5) | 3.3 | 2.0 | – | 1.5 | 0.5 | 3.7 | 1.0 | 0.0 | moderate (0.5) | 3.2 | 5.0 | 0.050 |
| CCOC(=O)C(F)(F)c1cc(Cl)sc1Cl [compound 5643, ethyl(2,5-dichlorothiophen-3-yl)(difluoro)acetate] | Moderate (0.1 mM) | – | 4.0 | 0.5 | 5.0 | 4.0 | 5.0 | 3.0 | 0.0 | 5.0 | – | 4.0 | 5.0 | – |
| CCOC(=O)Cc1cc(Cl)sc1Cl [compound 5668, ethyl (2,5-dichlorothiophen-3-yl)acetate] | – | strong (0.01 to 0.05) | – | 3.0 | – | 2.0 | 4.0 | – | 5.0 | – | – | – | 5.0 | – |
| O=C(O)C(F)(F)c1csc(C(F)(F)F)n1 [compound 5679, 2,2-difluoro-2-[2-(trifluoromethyl)-1,3-thiazol-4-yl]acetic acid] | very strong | strong (0.01 to 0.05) | 1.0 | 4.5 | 1.0 | 1.5 | 0.0 | 2.0 | 2.0 | 1.0 | strong (0.01 to 0.05) | 0.5 | 2.0 | – |
| CCOC(=O)Cc1cccc(Br)n1 [compound 6635, ethyl 2-(6-bromopyridin-2-yl)acetate] | Moderate (0.1 mM) | moderate (0.5) | 4.0 | 4.0 | 3.0 | 0.5 | 0.0 | 2.5 | 3.0 | 2.0 | – | 0.0 | 3.0 | – |
| OCC(F)(F)c1cccc(Br)n1 [compound 6643, 2-(6-bromopyridin-2-yl)-2,2-difluoroethan-1-ol] | Moderate (0.1 mM) | moderate (0.5) | 1.0 | 0.0 | 4.0 | 3.0 | 0.0 | 2.0 | 2.5 | 4.0 | – | 0.0 | 4.0 | – |
| ethyl 2-(6-bromopyridin-2-yl)-2,2-difluoroacetate [compound 6640] | Strong (0.01 mM) | moderate (0.5) | 4.0 | – | 1.0 | – | – | 3.0 | – | 3.0 | – | 2.0 | – | – |
